Among the data in ChEMBL document CHEMBL1146118, “Design, synthesis and biological evaluations of novel oxindoles as HIV-1 non-nucleoside reverse transcriptase inhibitors. Part I” (Bioorg Med Chem Lett, 2006) are EC50 and CC50 values, retold here.

Test [1] has as its system Human immunodeficiency virus 1. The test can be described thus: Antiviral activity against HIV1 in HEK293T cells. In kind it is functional, organism-based. The note with it: Human immunodeficiency virus 1, HEK-293T.
Test [2] deals with HEK293. The test can be described thus: Cytotoxicity against HEK293T cells. The conditions noted are these: Homo sapiens. In kind it is functional.

A word on the EC50: it is the concentration giving half of the maximal effect. Lower therefore signals an effect from little substance. One may read the CC50 as the concentration giving 50% cytotoxicity. Read a low CC50 as harm at low concentration. The compound `CON(C)C(=O)[C@H]1C[C@]12C(=O)Nc1ccc(Br)cc12` had an EC50 in test [1] of 0.656 µM. The 50% cytotoxic concentration (CC50) in test [2] was over 10 µM.

As to `CCCCC(=O)[C@H]1C[C@]12C(=O)Nc1ccc(Br)cc12`, in test [1], a half-maximal effect (EC50) was put at 0.62 µM. In test [2], this compound displayed a CC50 of over 10 µM.

In test [1], `CCOC(=O)[C@H]1C[C@]12C(=O)Nc1ccc(-c3ccccc3)cc12` had a concentration giving a half-maximal response (EC50) of 0.126 µM. This compound gave a CC50 in test [2] of over 10 µM.

In the case of `CCCCC1CC12C(=O)Nc1ccc(Br)cc12` (stereo not given), the EC50 in test [1] is 0.197 µM. In test [2], this compound registered a CC50 of over 10 µM.

In test [1], `COC(=O)CC1CC12C(=O)Nc1ccc(Br)cc12` (stereo not given) returned an EC50 of over 10 µM. The CC50 in test [2] is over 10 µM.

For `CCOC(=O)[C@H]1[C@@H](CC)[C@]12C(=O)Nc1ccc(Br)cc12`, it took 1.21 µM to reach a half-maximal effect in test [1] (EC50). Further, the CC50 in test [2] is over 10 µM.

In the case of `CCOC(=O)[C@H]1C[C@]12C(=O)Nc1ccc(Cl)cc12`, the EC50 in test [1] was 0.059 µM. In test [2], this compound had a CC50 of over 10 µM.

The compound `O=C([C@H]1C[C@]12C(=O)Nc1ccc(Br)cc12)N1CCCC1` displayed a half-maximal effective concentration (EC50) in test [1] of 0.191 µM. In test [2], the CC50 is over 10 µM.

For `CCOC(=O)[C@H]1C2(CCCC2)[C@]12C(=O)Nc1ccc(Br)cc12`, the midpoint of the response in test [1], the EC50, lay at 1.46 µM. In test [2], this compound came in with a CC50 of over 10 µM.

For `CCCNC(=O)[C@H]1C[C@]12C(=O)Nc1ccc(Br)cc12`, the concentration for a half-maximal effect (EC50) in test [1] is over 10 µM. The CC50 in test [2] is over 10 µM.

For `CCOC(=O)[C@H]1C[C@]12C(=O)Nc1ccc([N+](=O)[O-])cc12`, the EC50 in test [1] stood at 1.03 µM. The compound also yielded a CC50 in test [2] of over 10 µM.

The compound `CCOC(=O)[C@H]1C[C@]12C(=O)Nc1ccccc12` had an EC50 in test [1] of 0.279 µM. The compound further gave a CC50 in test [2] of over 10 µM.

Compound `CCOC(=O)[C@H]1C[C@]12C(=O)Nc1ccc(C#N)cc12` yielded an EC50 in test [1] of 0.066 µM. The compound further returned a CC50 in test [2] of over 10 µM.

`CCOC(=O)[C@H]1C[C@]12C(=O)Nc1ccc(-c3cccn3C)cc12` showed an EC50 in test [1] of 0.358 µM. In addition, the CC50 in test [2] is 8.06 µM.

Take `CC(C)OC(=O)[C@H]1C[C@]12C(=O)Nc1ccc(Br)cc12`: the EC50 in test [1] came to 0.059 µM. This compound registered a CC50 in test [2] of over 10 µM.

In test [1], `CCOC(=O)[C@H]1C[C@]12C(=O)Nc1ccc(F)cc12` returned a concentration giving a half-maximal response (EC50) of 0.289 µM. Also, the CC50 in test [2] is over 10 µM.

As for `CCOC(=O)[C@H]1C[C@]12C(=O)Nc1ccc(Br)cc12`, the EC50 in test [1] was 0.066 µM. Besides, the CC50 in test [2] is over 10 µM.

`CCCCCC#CC1CC12C(=O)Nc1ccc(Br)cc12` (stereo not given): the EC50 in test [1] is 0.463 µM. Also, the CC50 in test [2] was determined as 6.62 µM.

For the compound `CCOC(=O)/C=C1/C(=O)Nc2ccc(Br)cc21`, in test [1], the concentration for a half-maximal effect (EC50) was 2.28 µM. In test [2], the 50% cytotoxic concentration (CC50) was over 10 µM.

Turning to `CCOC(=O)[C@H]1C(C)(C)[C@]12C(=O)Nc1ccc(Br)cc12`, in test [1], the EC50 was 0.015 µM. The CC50 in test [2] was over 10 µM.

Take `CCOC(=O)[C@H]1C[C@]12C(=O)Nc1cc(Cl)ccc12`: in test [1], the EC50 was over 10 µM. In test [2], this compound displayed a CC50 of over 10 µM.

Regarding `CCOC(=O)[C@@H]1C[C@]12C(=O)Nc1ccc(Br)cc12`, the EC50 in test [1] was over 10 µM. The CC50 in test [2] was over 10 µM.

`O=C1Nc2ccc(Br)cc2C12CC2COc1ccccc1` (stereo not given) showed a concentration giving a half-maximal response (EC50) in test [1] of 5.62 µM. Also, the CC50 in test [2] is over 10 µM.

On to `CC(C)(C)OC(=O)[C@H]1C[C@]12C(=O)Nc1ccc(Br)cc12`, for which the EC50 in test [1] was 0.04 µM. The CC50 in test [2] was over 10 µM.

Consider `CCOC(=O)[C@H]1C[C@]12C(S)=Nc1ccc(Br)cc12`, for which, in test [1], the EC50 was over 10 µM. In addition, the CC50 in test [2] was over 10 µM.

On to `CCOC(=O)[C@H]1C[C@]12C(=O)Nc1ccc(N)cc12`, for which, in test [1], the EC50 was 2.7 µM. The same compound registered a CC50 in test [2] of 1.99 µM.

As for `O=C(OCc1ccccc1)[C@H]1C[C@]12C(=O)Nc1ccc(Br)cc12`, the EC50 in test [1] was 5.58 µM. For the same compound, the CC50 in test [2] is over 10 µM.

With `CCOC(=O)[C@H]1C[C@]12C(=O)Nc1c(C)cc(Cl)cc12`, in test [1], a half-maximal effect (EC50) was put at 2.25 µM. This compound also registered a 50% cytotoxic concentration (CC50) in test [2] of over 10 µM.

In turn, `O=C(O)[C@H]1C[C@]12C(=O)Nc1ccc(Br)cc12` came in with an EC50 in test [1] of 7.63 µM. For the same compound, the CC50 in test [2] is over 10 µM.

In turn, `CCOC(=O)[C@H]1C[C@]12C(=O)Nc1ccc(OC(F)(F)F)cc12` displayed an EC50 in test [1] of 2.23 µM. This compound also had a CC50 in test [2] of over 10 µM.

`CCOC(=O)[C@H]1C(CC)(CC)[C@]12C(=O)Nc1ccc(Br)cc12` returned an EC50 in test [1] of over 10 µM. The compound also displayed a CC50 in test [2] of over 10 µM.

In test [1], `O=C([C@H]1C[C@]12C(=O)Nc1ccc(Br)cc12)N1CCSC1` gave an EC50 of 0.18 µM. The same compound yielded a cytotoxic concentration (CC50) in test [2] of over 10 µM.

In test [1], `CCOC(=O)[C@H]1C[C@]12C(=O)Nc1c(Cl)cc(Cl)cc12` displayed an EC50 of 7.36 µM. For the same compound, the CC50 in test [2] is over 10 µM.

In test [1], `CCOC(=O)CC1(C)C(=O)Nc2ccc(Br)cc21` (stereo not given) displayed an EC50 of over 10 µM. Also, the CC50 in test [2] is over 10 µM.

For the compound `CCOC(=O)[C@H]1C[C@]12C(=O)Nc1ccc(I)cc12`, the EC50 in test [1] is 0.486 µM. The cytotoxic concentration (CC50) in test [2] is over 10 µM.

Turning to `CCOC(=O)[C@H]1C[C@]12C(=O)N(C)c1ccc(Br)cc12`, the EC50 in test [1] was over 10 µM. Further, the CC50 in test [2] was over 10 µM.

`CCOC(=O)[C@@]1(C)C[C@]12C(=O)Nc1ccc(Br)cc12`: the midpoint of the response in test [1], the EC50, lay at 33.3 µM. Moreover, the CC50 in test [2] was over 10 µM.

`C=Cc1ccc2c(c1)[C@@]1(C[C@@H]1C(=O)OCC)C(=O)N2`: in test [1], the EC50 is over 10 µM. The compound also gave a CC50 in test [2] of over 10 µM.

In test [1], `CCOC(=O)[C@H]1C[C@]12C(=O)Nc1ccc(-c3cccs3)cc12` had an EC50 of 2.65 µM. Besides, the cytotoxic concentration (CC50) in test [2] worked out at 1.94 µM.

Regarding `CCOC(=O)[C@H]1C[C@]12C(=O)Nc1ccc(C)cc12`, the EC50 in test [1] was determined as 1.09 µM. The CC50 in test [2] was over 10 µM.

With `O=C([C@H]1C[C@]12C(=O)Nc1ccc(Br)cc12)N1CCCCC1`, in test [1], the EC50 amounted to 0.586 µM. In test [2], this compound had a CC50 of over 10 µM.

As for `CCN(CC)C(=O)[C@H]1C[C@]12C(=O)Nc1ccc(Br)cc12`, the EC50 in test [1] turned out to be 1.42 µM. The compound further had a CC50 in test [2] of over 10 µM.

Compound `CCOC(=O)/C=C1\C(=O)Nc2ccc(Br)cc21` displayed an EC50 in test [1] of over 10 µM. Besides, the CC50 in test [2] is over 10 µM.

The compound `CCOC(=O)[C@H]1C[C@]12C(=O)Nc1ccc(-c3ccco3)cc12` showed a 50% effective concentration (EC50) in test [1] of 0.608 µM. In test [2], the CC50 was 2.19 µM.

Turning to `CCOC(=O)[C@H]1[C@H](CC)[C@]12C(=O)Nc1ccc(Br)cc12`, it took 0.03 µM to reach a half-maximal effect in test [1] (EC50). The cytotoxic concentration (CC50) in test [2] was over 10 µM.

In turn, `CCOC(=O)[C@H]1C[C@]12C(=O)Nc1cccc(Br)c12` gave a concentration giving a half-maximal response (EC50) in test [1] of over 10 µM. In addition, the CC50 in test [2] is over 10 µM.

In the case of `O=C1Nc2ccc(Cl)cc2[C@@](C#CC2CC2)(C(F)(F)F)O1` [EFAVIRENZ], the CC50 in test [2] stood at 10 µM.

Consider `Cc1ccnc2c1NC(=O)c1cccnc1N2C1CC1` [NEVIRAPINE], for which, in test [1], the EC50 came to 0.05 µM. This compound displayed a CC50 in test [2] of over 10 µM.
